Three compounds from patent publication US11612587B2, “Composition for preventing or treating hair loss” (KYUNGPOOK NATIONAL UNIVERSITY INDUSTRY-ACADEMIC COOPERATION …, priority 2018, dated 2023) can be followed below.

The subject of data set [1] is human hair follicles. Put plainly: recovery of human hair follicle growth inhibition by 15d-PGJ2 in human hair follicle tissue culture. The class given is cell-based. The conditions noted are these: for hair follicle growth (hair follicle length when 15d-PGJ2 was treated alone as 100%): 6 days culture, FIG. 5. On the procedure: (§1) Human hair tissue was provided from the hair transplant center of Kyungpook National University and used for the experiment by separating the hair follicles from the scalp tissue with the consent of the hair transplant patient (IRB project number: KNUH2014-02-023). After treatment of each compound, human hair tissue was prepared by incubating a 37° C. CO2 incubator for 6 days using Williams E media (Sigma, USA) containing 2 mM L-glutamine, 100 U/ml streptomycin, and 10 ng/ml hydrocortisone and the length of growth was measured using a microscope.
(§2) The data from the above experiments were expressed as mean±SEM. For statistical processing, the mean deviation of each group was measured using Student's t-test, and it was considered significant at p<0.005 and p<0.05.

Data set [2] has as its system human hair follicles. The experiment in a line: toxicity / growth of cultured human hair follicle tissue treated with the compound alone. It counts as cell-based. The conditions noted are these: 6 days culture. On the procedure:
as §1, §2

Molecules are shown by their SMILES.

Regarding `O=C(O)CN1C(=O)C2(CC(=O)N(Cc3cc(Cl)ccc3F)C2=O)c2cc(Cl)ccc21` (stereo not shown) [Compound 1], the “hair follicle growth (hair follicle length when 15d-PGJ2 was treated alone as 100%)” value is 108% with human hair follicles [1] (0.1 nM compound simultaneously with 15d-PGJ2 (10 μM)), 194% in the data set on human hair follicles [1] (1 nM compound simultaneously with 15d-PGJ2 (10 μM)) and 234% in the data set with human hair follicles [1] (10 nM compound simultaneously with 15d-PGJ2 (10 μM)). Further, the “toxicity in human hair follicle tissue (hair follicle growth vs untreated group)” value with human hair follicles [2] (compound alone at 0.1-10 nM, FIG. 4) is “no significant difference”.

Consider `CC(C)(C)OC(=O)CN1C(=O)C2(CCNC2=O)c2cc(Cl)ccc21` (stereo not shown) [Compound 2], for which the “hair follicle growth inhibited by 15d-PGJ2” value in the data set with human hair follicles [1] (Compound 2 0.5 μM, 1 μM simultaneously with 15d-PGJ2 (10 μM), vs 15d-PGJ2 only, FIG. 7) was “significantly increased”. For the same compound, in the data set with human hair follicles [2] (compound alone at 0.1 to 10 μM, FIG. 6), the “toxicity in human hair follicle tissue (hair follicle growth vs untreated group)” value was “no significant difference”.

With `CCCCC/C=C/C=C1/C(=O)C=C[C@@H]1C/C=C\CCCC(=O)O` [Compound 15d-PGJ2, 15-deoxy-Δ^12,14-prostaglandin J2, reference compound], the “decrease of hair follicle growth” value in the data set with human hair follicles [2] (15d-PGJ2 alone at 10 μM, FIG. 1) was “⅓”.
